The results in this text go back to patent publication US10988478B1, “Pyrazolo[1,5a]pyrimidine derivatives as IRAK4 modulators” (Genentech, Inc., priority 2015, dated 2021).

The term pKi denotes −log10 of the Ki, conventionally taken in molar units.

SMILES strings stand for the structures. pKi: −log10 of the molar value.

human IRAK4, sequence (Q9NWZ3 whole entry, the tested form may be a part): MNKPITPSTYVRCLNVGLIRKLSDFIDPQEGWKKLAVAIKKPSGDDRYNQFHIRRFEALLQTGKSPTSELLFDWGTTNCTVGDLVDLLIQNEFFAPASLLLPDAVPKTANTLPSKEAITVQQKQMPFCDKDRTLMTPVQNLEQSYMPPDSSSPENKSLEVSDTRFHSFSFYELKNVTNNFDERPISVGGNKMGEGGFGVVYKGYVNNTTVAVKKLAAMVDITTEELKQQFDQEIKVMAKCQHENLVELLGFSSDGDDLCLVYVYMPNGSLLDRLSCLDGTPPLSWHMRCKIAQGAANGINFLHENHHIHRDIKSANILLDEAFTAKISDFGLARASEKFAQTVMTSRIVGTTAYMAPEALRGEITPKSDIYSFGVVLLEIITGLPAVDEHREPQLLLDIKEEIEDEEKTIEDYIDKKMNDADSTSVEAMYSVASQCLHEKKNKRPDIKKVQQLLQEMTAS

This assay deals with human IRAK4 (Homo sapiens (Human), UniProt Q9NWZ3). Description: IRAK4 kinase inhibition, Transcreener fluorescence polarization ADP assay. In kind it is biochemical. Particulars: recombinant full-length His6-IRAK4; 125 uM ATP; 90 min; Ki computed using ATP Km 642 uM. The protocol:
Compounds were assayed for inhibition of human IRAK4 and IRAK1 catalytic activity using recombinant enzyme produced from insect cells. Full-length IRAK4 protein, carrying an N-terminal His6-Tag, was obtained from Life Technologies (Carlsbad, Calif., USA). The IRAK1 construct was produced internally and was comprised of IRAK1 residues Arg194 to Ser712, preceded by an NH2-terminal His6 tag and the coding sequence for glutathione-S-transferase.
(Fluorescence polarisation rises when a labelled molecule tumbles more slowly, as on binding a larger partner.)
Regarding `CC1(C)Cc2cc(NC(=O)c3cnn4cccnc34)c(-c3cncc(C#N)c3)cc2O1` [Example 405, N-(6-(5-Cyanopyridin-3-yl)-2,2-dimethyl-2,3-dihydrobenzofuran-5-yl)pyrazolo[1,5-a]pyrimidine-3-carboxamide], the pKi is 6.28.
As for `Cn1ccnc1-c1cc2c(cc1NC(=O)c1cnn3cccnc13)CC(C)(C)O2` [Example 406, N-[2,2-Dimethyl-6-(1-methylimidazol-2-yl)-3H-benzofuran-5-yl]pyrazolo[1,5-a]pyrimidine-3-carboxamide], the figure is 6.82; as for `CC1(C)Cc2cc(NC(=O)c3cnn4cc(C#N)cnc34)c(N3CCOCC3)cc2O1` [Example 407, 6-Cyano-N-(2,2-dimethyl-6-morpholino-2,3-dihydrobenzofuran-5-yl)pyrazolo[1,5-a]pyrimidine-3-carboxamide], 8.22; as for `CC1(C)Cc2cc(NC(=O)c3cnn4cccnc34)c(N3CC[N+](C)(CC(N)=O)CC3)cc2O1` [Example 408, 1-(2-Amino-2-oxoethyl)-4-(2,2-dimethyl-5-(pyrazolo[1,5-a]pyrimidine-3-carboxamido)-2,3-dihydrobenzofuran-6-yl)-1-methylpiperazin-1-ium], 7.34.
As for `C[C@]1(CO)Cc2cc(NC(=O)c3cnn4cccnc34)c(N3CCC([C@@](C)(O)C(F)(F)F)CC3)cc2O1` [Example 409, N—((R)-2-(hydroxymethyl)-2-methyl-6-(4-((R)-1,1,1-trifluoro-2-hydroxypropan-2-yl)piperidin-1-yl)-2,3-dihydrobenzofuran-5-yl)pyrazolo[1,5-a]pyrimidine-3-carboxamide], the figure is 8.17; as for `C[C@]1(CO)Cc2cc(NC(=O)c3cnn4cccnc34)c(N3CCC([C@](C)(O)C(F)(F)F)CC3)cc2O1` [Example 410, N—((R)-2-(hydroxymethyl)-2-methyl-6-(4-((S)-1,1,1-trifluoro-2-hydroxypropan-2-yl)piperidin-1-yl)-2,3-dihydrobenzofuran-5-yl)pyrazolo[1,5-a]pyrimidine-3-carboxamide], 8.21.
As for `C[C@@]1(CO)Cc2cc(NC(=O)c3cnn4cccnc34)c(N3CCC([C@@](C)(O)C(F)(F)F)CC3)cc2O1` [Example 411, N—((S)-2-(hydroxymethyl)-2-methyl-6-(4-((R)-1,1,1-trifluoro-2-hydroxypropan-2-yl)piperidin-1-yl)-2,3-dihydrobenzofuran-5-yl)pyrazolo[1,5-a]pyrimidine-3-carboxamide], the pKi was 8.12.
As for `C[C@@]1(CO)Cc2cc(NC(=O)c3cnn4cccnc34)c(N3CCC([C@](C)(O)C(F)(F)F)CC3)cc2O1` [Example 412, N—((S)-2-(hydroxymethyl)-2-methyl-6-(4-((S)-1,1,1-trifluoro-2-hydroxypropan-2-yl)piperidin-1-yl)-2,3-dihydrobenzofuran-5-yl)pyrazolo[1,5-a]pyrimidine-3-carboxamide], the figure is 8.23; as for `C[C@]1(CO)Cc2cc(NC(=O)c3cnn4cccnc34)c(N3C[C@@H]4[C@H](C3)[C@H]4C(N)=O)cc2O1` [Example 413, N-((R)-6-((1R,5S,6R)-6-carbamoyl-3-azabicyclo[3.1.0]hexan-3-yl)-2-(hydroxymethyl)-2-methyl-2,3-dihydrobenzofuran-5-yl)pyrazolo[1,5-a]pyrimidine-3-carboxamide], 7.49; as for `C[C@@]1(CO)Cc2cc(NC(=O)c3cnn4cccnc34)c(N3C[C@@H]4[C@H](C3)[C@H]4C(N)=O)cc2O1` [Example 414, N-((S)-6-((1R,5S,6S)-6-carbamoyl-3-azabicyclo[3.1.0]hexan-3-yl)-2-(hydroxymethyl)-2-methyl-2,3-dihydrobenzofuran-5-yl)pyrazolo[1,5-a]pyrimidine-3-carboxamide], 7.92.
Take `C[C@@]1(CO)Cc2cc(NC(=O)c3cnn4cccnc34)c(N3CCC4(CC3)CNC(=O)C4)cc2O1` [Example 418, (S)-N-(2-(hydroxymethyl)-2-methyl-6-(3-oxo-2,8-diazaspiro[4.5]decan-8-yl)-2,3-dihydrobenzofuran-5-yl)pyrazolo[1,5-a]pyrimidine-3-carboxamide]: the pKi was 8.32.
As for `C[C@@]1(CO)Cc2cc(NC(=O)c3cnn4cccnc34)c(N3Cc4cccnc4C3)cc2O1` [Example 420, (S)-N-(6-(5,7-dihydro-6H-pyrrolo[3,4-b]pyridin-6-yl)-2-(hydroxymethyl)-2-methyl-2,3-dihydrobenzofuran-5-yl)pyrazolo[1,5-a]pyrimidine-3-carboxamide], the figure is 7.85; as for `C[C@@]1(O)COc2cc(N3CCC([C@](C)(O)C(F)(F)F)CC3)c(NC(=O)c3cnn4cccnc34)cc2C1` [Example 421, N—((S)-3-hydroxy-3-methyl-7-(4-((S)-1,1,1-trifluoro-2-hydroxypropan-2-yl)piperidin-1-yl)chroman-6-yl)pyrazolo[1,5-a]pyrimidine-3-carboxamide], 7.00.
As for `CC1(O)COc2cc(N3CCC(C(C)(O)C(F)(F)F)CC3)c(NC(=O)c3cnn4cccnc34)cc2C1` (stereo not shown) [Example 423, N-(3-hydroxy-3-methyl-7-(4-(1,1,1-trifluoro-2-hydroxypropan-2-yl)piperidin-1-yl)chroman-6-yl)pyrazolo[1,5-a]pyrimidine-3-carboxamide], the figure is 8.02; as for `C[C@]1(O)COc2cc(N3CCN(CC(N)=O)CC3)c(NC(=O)c3cnn4cccnc34)cc2C1` [Example 424, (R)-N-(7-(4-(2-amino-2-oxoethyl)piperazin-1-yl)-3-hydroxy-3-methylchroman-6-yl)pyrazolo[1,5-a]pyrimidine-3-carboxamide], 8.52.
`C[C@@]1(O)COc2cc(N3CCN(CC(N)=O)CC3)c(NC(=O)c3cnn4cccnc34)cc2C1` [Example 425, (S)-N-(7-(4-(2-amino-2-oxoethyl)piperazin-1-yl)-3-hydroxy-3-methylchroman-6-yl)pyrazolo[1,5-a]pyrimidine-3-carboxamide]: the negative logarithm of the Ki (pKi) was 8.22.
Turning to `C[C@]1(O)COc2cc(N3CCC(C#N)CC3)c(NC(=O)c3cnn4cccnc34)cc2C1` [Example 426, (R)-N-(7-(4-cyanopiperidin-1-yl)-3-hydroxy-3-methylchroman-6-yl)pyrazolo[1,5-a]pyrimidine-3-carboxamide], the pKi was 8.30.
On to `C[C@@]1(O)COc2cc(N3CCC(C#N)CC3)c(NC(=O)c3cnn4cccnc34)cc2C1` [Example 427, (S)-N-(7-(4-cyanopiperidin-1-yl)-3-hydroxy-3-methylchroman-6-yl)pyrazolo[1,5-a]pyrimidine-3-carboxamide], for which the pKi is 7.42.
Regarding `C[C@]1(O)COc2cc(N3CCC(n4ccnc4)CC3)c(NC(=O)c3cnn4cccnc34)cc2C1` [Example 428, (R)-N-(7-(4-(1H-imidazol-1-yl)piperidin-1-yl)-3-hydroxy-3-methylchroman-6-yl)pyrazolo[1,5-a]pyrimidine-3-carboxamide], the negative logarithm of the Ki (pKi) was 7.12.
`C[C@@]1(O)COc2cc(N3CCC(n4ccnc4)CC3)c(NC(=O)c3cnn4cccnc34)cc2C1` [Example 429, (S)-N-(7-(4-(1H-imidazol-1-yl)piperidin-1-yl)-3-hydroxy-3-methylchroman-6-yl)pyrazolo[1,5-a]pyrimidine-3-carboxamide]: the pKi was 7.92.
As for `Cn1cc(COc2cc3c(cc2NC(=O)c2cnn4cccnc24)C[C@](C)(O)CO3)cn1` [Example 431, (S)-N-(3-hydroxy-3-methyl-7-((1-methyl-1H-pyrazol-4-yl)methoxy)chroman-6-yl)pyrazolo[1,5-a]pyrimidine-3-carboxamide], the pKi was 7.70.
As for `CC(C)(O)CN1CCN(c2cc3c(cc2NC(=O)c2cnn4cccnc24)CC(C)(C)O3)CC1` [Example 434, N-(6-(4-(2-hydroxy-2-methylpropyl)piperazin-1-yl)-2,2-dimethyl-2,3-dihydrobenzofuran-5-yl)pyrazolo[1,5-a]pyrimidine-3-carboxamide], the figure is 7.66; as for `CCC(O)(CC)CN1CCN(c2cc3c(cc2NC(=O)c2cnn4cccnc24)CC(C)(C)O3)CC1` [Example 435, N-(6-(4-(2-Ethyl-2-hydroxybutyl)piperazin-1-yl)-2,2-dimethyl-2,3-dihydrobenzofuran-5-yl)pyrazolo[1,5-a]pyrimidine-3-carboxamide], 7.28; as for `CN(C)C(=O)[C@]1(C)Cc2cc(NC(=O)c3cnn4cccnc34)c(N3CCOCC3)cc2O1` [Example 438, (S)—N-(2-(dimethylcarbamoyl)-2-methyl-6-morpholino-2,3-dihydrobenzofuran-5-yl)pyrazolo[1,5-a]pyrimidine-3-carboxamide], 7.26.
As for `CN(C)C(=O)[C@@]1(C)Cc2cc(NC(=O)c3cnn4cccnc34)c(N3CCOCC3)cc2O1` [Example 439, (R)—N-(2-(dimethylcarbamoyl)-2-methyl-6-morpholino-2,3-dihydrobenzofuran-5-yl)pyrazolo[1,5-a]pyrimidine-3-carboxamide], the figure is 7.47; as for `CC1(C)Cc2cc(NC(=O)c3cnn4cccnc34)c(N3CCN(CC(=O)NCC4CCCO4)CC3)cc2O1` (stereo not shown) [Example 440, N-(2,2-dimethyl-6-(4-(2-oxo-2-(((tetrahydrofuran-2-yl)methyl)amino)ethyl)piperazin-1-yl)-2,3-dihydrobenzofuran-5-yl)pyrazolo[1,5-a]pyrimidine-3-carboxamide], 7.28; as for `CC1(C)Cc2cc(NC(=O)c3cnn4cccnc34)c(N3CCN4CCC[C@H]4C3)cc2O1` [Example 442, (S)-N-(6-(hexahydropyrrolo[1,2-a]pyrazin-2(1H)-yl)-2,2-dimethyl-2,3-dihydrobenzofuran-5-yl)pyrazolo[1,5-a]pyrimidine-3-carboxamide], 7.02.
Regarding `CC1(C)Cc2cc(NC(=O)c3cnn4cccnc34)c(N3CCN4CCC[C@@H]4C3)cc2O1` [Example 443, (R)-N-(6-(hexahydropyrrolo[1,2-a]pyrazin-2(1H)-yl)-2,2-dimethyl-2,3-dihydrobenzofuran-5-yl)pyrazolo[1,5-a]pyrimidine-3-carboxamide], the pKi is 7.42.
